Measured values reported in publication PMC3396293 (Bioorganic & medicinal chemistry, 2011).
Counter-ions that a name gives are not always drawn.

Tests used:
Format in all cases: biochemical
steroid sulfatase (STS) = target: T1, steroid sulfatase (STS) (Homo sapiens, UniProt P08842); experiment: 3H-DHEA scintillation counting; details: labelled compound; 5 µM DHEAS, pH 7.4, 37 °C
T1 sequence (P08842 22-583): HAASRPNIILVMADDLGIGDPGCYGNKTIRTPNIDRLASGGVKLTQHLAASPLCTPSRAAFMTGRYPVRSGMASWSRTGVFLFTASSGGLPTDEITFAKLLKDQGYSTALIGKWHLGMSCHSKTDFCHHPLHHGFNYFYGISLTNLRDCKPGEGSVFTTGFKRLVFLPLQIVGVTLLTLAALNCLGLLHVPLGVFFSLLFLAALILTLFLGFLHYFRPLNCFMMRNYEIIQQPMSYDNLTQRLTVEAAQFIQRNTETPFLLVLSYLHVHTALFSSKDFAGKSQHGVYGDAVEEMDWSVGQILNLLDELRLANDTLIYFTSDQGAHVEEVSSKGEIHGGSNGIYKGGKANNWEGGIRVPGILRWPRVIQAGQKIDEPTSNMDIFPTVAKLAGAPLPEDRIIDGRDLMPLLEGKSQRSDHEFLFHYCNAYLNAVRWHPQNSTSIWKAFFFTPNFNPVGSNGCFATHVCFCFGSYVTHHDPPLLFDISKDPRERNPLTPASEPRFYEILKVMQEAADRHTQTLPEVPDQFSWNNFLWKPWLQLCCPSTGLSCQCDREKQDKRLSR

aryl sulfatase G (ARSG) = target: T2, aryl sulfatase G (ARSG) (Homo sapiens, UniProt Q96EG1); experiment: colorimetric assay, […] nm; details: 8 mM pNCS, 0.5 M NaOAc, pH 5.6, 37 °C
T2 sequence (Q96EG1 17-525): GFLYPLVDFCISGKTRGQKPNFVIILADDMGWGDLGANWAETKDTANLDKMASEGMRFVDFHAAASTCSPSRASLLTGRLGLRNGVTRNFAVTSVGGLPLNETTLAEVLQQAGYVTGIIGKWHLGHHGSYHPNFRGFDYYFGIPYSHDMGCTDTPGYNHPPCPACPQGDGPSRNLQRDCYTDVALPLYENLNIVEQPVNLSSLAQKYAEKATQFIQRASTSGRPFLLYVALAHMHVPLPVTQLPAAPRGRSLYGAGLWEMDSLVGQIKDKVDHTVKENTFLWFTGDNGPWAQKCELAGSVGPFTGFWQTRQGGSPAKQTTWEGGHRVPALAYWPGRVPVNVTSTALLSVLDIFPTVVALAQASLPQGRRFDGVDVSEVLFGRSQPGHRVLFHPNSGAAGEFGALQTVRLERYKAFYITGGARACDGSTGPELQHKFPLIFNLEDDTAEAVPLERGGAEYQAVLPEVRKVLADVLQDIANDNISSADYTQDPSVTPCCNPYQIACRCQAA

PARS = PARS (Pseudomonas aeruginosa, UniProt P51691); experiment: colorimetric assay, […] nm; details: 8 mM pNCS, pH 8.5, room temperature
Chain of PARS (P51691 2-536): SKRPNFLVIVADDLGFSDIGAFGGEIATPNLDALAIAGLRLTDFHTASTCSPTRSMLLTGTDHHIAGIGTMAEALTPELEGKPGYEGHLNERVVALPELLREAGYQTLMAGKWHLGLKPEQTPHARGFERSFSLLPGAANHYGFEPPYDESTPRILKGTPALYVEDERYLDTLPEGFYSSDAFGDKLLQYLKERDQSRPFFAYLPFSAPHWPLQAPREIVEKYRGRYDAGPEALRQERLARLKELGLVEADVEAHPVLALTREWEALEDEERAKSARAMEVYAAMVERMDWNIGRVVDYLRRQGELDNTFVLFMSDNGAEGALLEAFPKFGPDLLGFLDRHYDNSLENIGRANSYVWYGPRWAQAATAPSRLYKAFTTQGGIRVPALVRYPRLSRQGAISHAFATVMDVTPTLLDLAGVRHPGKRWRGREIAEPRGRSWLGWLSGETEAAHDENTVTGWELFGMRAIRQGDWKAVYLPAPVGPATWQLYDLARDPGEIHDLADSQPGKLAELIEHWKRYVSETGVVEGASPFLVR

KARS = target: T3, KARS (Klebsiella pneumoniae, UniProt Q9X759); experiment: colorimetric assay, […] nm; details: 8 mM pNCS, pH 7.5, room temperature
T3 sequence (Q9X759 21-577): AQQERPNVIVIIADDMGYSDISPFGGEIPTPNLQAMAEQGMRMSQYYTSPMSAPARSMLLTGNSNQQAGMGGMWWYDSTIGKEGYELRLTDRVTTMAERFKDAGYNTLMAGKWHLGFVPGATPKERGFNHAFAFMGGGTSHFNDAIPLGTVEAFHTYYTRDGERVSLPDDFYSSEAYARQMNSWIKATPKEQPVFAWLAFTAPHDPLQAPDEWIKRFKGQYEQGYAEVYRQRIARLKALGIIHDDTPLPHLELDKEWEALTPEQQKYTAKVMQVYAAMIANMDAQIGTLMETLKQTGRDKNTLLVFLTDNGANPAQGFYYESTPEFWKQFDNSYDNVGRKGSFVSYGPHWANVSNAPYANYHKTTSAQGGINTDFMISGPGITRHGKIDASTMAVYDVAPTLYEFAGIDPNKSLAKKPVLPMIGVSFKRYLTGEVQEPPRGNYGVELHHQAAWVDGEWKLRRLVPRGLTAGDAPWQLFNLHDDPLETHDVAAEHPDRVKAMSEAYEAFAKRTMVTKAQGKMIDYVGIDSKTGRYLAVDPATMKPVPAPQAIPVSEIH

For `C[C@]12CC[C@H](OS(=O)(=O)O)CC1=CC[C@@H]1[C@@H]2CC[C@]2(C)C(=O)CC[C@@H]12` [dehydroepiandrosterone-3-sulfate], the 3H-DHEA scintillation counting (steroid sulfatase (STS)) was “STS activity was determined using a radioactive dehydroepiandrosterone-3-sulfate (^3DHEAS) assay”.
`O=[N+]([O-])c1ccc(O)c(OS(=O)(=O)O)c1` [para-nitrocatechol sulfate] was tested, and the “colorimetric assay, 515 nm” value (aryl sulfatase G (ARSG)) was “KARS, PARS and ARSG activities were monitored using a para-nitrocatechol sulfate (pNCS) colorimetric assay”, the “colorimetric assay, 515 nm” value (PARS) was “KARS, PARS and ARSG activities were monitored using a para-nitrocatechol sulfate (pNCS) colorimetric assay” and the “colorimetric assay, 515 nm” value (KARS) was “KARS, PARS and ARSG activities were monitored using a para-nitrocatechol sulfate (pNCS) colorimetric assay”.
